Measurements from PubChem BioAssay AID256 (DTP/NCI, 2004).
Inconclusive results and toxic doses are left out. The calls were made as follows: active = survival T/C of 150% or more; inactive = T/C below 125% in these data.

Tested on: CD2F1 mice, L1210 leukemia ip, survival T/C
Assay: NCI In Vivo Anticancer Drug Screen. Data for tumor model L1210 Leukemia (intraperitoneal) in CD2F1 (CDF1) mice
Conditions: higher = longer survival
Outline: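 Read-out first: treated-group measurement over vehicle-control measurement, expressed as a ratio. Animals bore a transplanted tumor line and were dosed with compound or vehicle.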

[1] = endpoint: mean survival time, dose: 50.0 mg/kg/injection, schedule: Q01DX009 (ip), vehicle: saline with Tween-80
[2] = endpoint: mean survival time, dose: 100.0 mg/kg/injection, schedule: Q01DX009 (ip), vehicle: saline with Tween-80
[3] = endpoint: mean survival time, dose: 200.0 mg/kg/injection, schedule: Q01DX009 (ip), vehicle: saline with Tween-80
[4] = endpoint: mean survival time, dose: 100.0 mg/kg/injection, schedule: Q01DX009 (ip), vehicle: saline
[5] = endpoint: mean survival time, dose: 100.0 mg/kg/injection, schedule: Q04DX003 (ip), vehicle: saline
[6] = endpoint: mean survival time, dose: 200.0 mg/kg/injection, schedule: Q04DX003 (ip), vehicle: saline
[7] = endpoint: mean survival time, dose: 400.0 mg/kg/injection, schedule: Q04DX003 (ip), vehicle: saline
[8] = endpoint: mean survival time, dose: 75.0 mg/kg/injection, schedule: Q01DX001 (ip), vehicle: saline
[9] = endpoint: mean survival time, dose: 100.0 mg/kg/injection, schedule: Q04DX003 (ip), vehicle: saline with Tween-80
[10] = endpoint: mean survival time, dose: 200.0 mg/kg/injection, schedule: Q04DX003 (ip), vehicle: saline with Tween-80
[11] = endpoint: mean survival time, dose: 25.0 mg/kg/injection, schedule: Q01DX009 (ip), vehicle: saline with Tween-80
[12] = endpoint: mean survival time, dose: 100.0 mg/kg/injection, schedule: Q04DX002 (ip), vehicle: saline with Tween-80
[13] = endpoint: mean survival time, dose: 200.0 mg/kg/injection, schedule: Q04DX002 (ip), vehicle: saline with Tween-80
[14] = endpoint: mean survival time, dose: 400.0 mg/kg/injection, schedule: Q04DX003 (ip), vehicle: saline with Tween-80

Measured: T/C

O=C1C(Br)=C(Br)C(=O)C(Br)=C1Br
inactive: [1] 91 % of control | [2] 94 % of control | [3] 86 % of control

O=C(O)C1C2CC(O)C(C2)C1C(=O)O (centres undefined)
inactive: [4] 97 % of control | [5] 94 % of control | endpoint: mean survival time, dose: 200.0 mg/kg/injection, schedule: Q01DX009 (ip), vehicle: saline 100 % of control | [6] 94 % of control | endpoint: mean survival time, dose: 400.0 mg/kg/injection, schedule: Q01DX009 (ip), vehicle: saline 97 % of control | [7] 95 % of control

CCCCCCCCCCCC[n+]1cccc2ccccc21
inactive: endpoint: mean survival time, dose: 0.35 mg/kg/injection, schedule: Q01DX009 (ip), vehicle: saline 106 % of control | endpoint: mean survival time, dose: 0.7 mg/kg/injection, schedule: Q01DX009 (ip), vehicle: saline 111 % of control | endpoint: mean survival time, dose: 1.4 mg/kg/injection, schedule: Q01DX009 (ip), vehicle: saline 117 % of control

CC(O)(P(=O)(O)O)P(=O)(O)O.[NH-]CC[NH-].[NH-]CC[NH-].[Pt+2].[Pt+2]
inactive: endpoint: mean survival time, dose: 3.13 mg/kg/injection, schedule: Q04DX003 (ip), vehicle: distilled water + Tween-80 104 % of control | endpoint: mean survival time, dose: 6.25 mg/kg/injection, schedule: Q04DX003 (ip), vehicle: distilled water + Tween-80 104 % of control | endpoint: mean survival time, dose: 12.5 mg/kg/injection, schedule: Q04DX003 (ip), vehicle: distilled water + Tween-80 88 % of control | endpoint: mean survival time, dose: 25.0 mg/kg/injection, schedule: Q04DX003 (ip), vehicle: distilled water + Tween-80 103 % of control | endpoint: mean survival time, dose: 50.0 mg/kg/injection, schedule: Q04DX003 (ip), vehicle: distilled water + Tween-80 119 % of control | endpoint: mean survival time, dose: 100.0 mg/kg/injection, schedule: Q04DX003 (ip), vehicle: distilled water + Tween-80 124 % of control | endpoint: mean survival time, dose: 200.0 mg/kg/injection, schedule: Q04DX003 (ip), vehicle: distilled water + Tween-80 111 % of control

O=[N+]([O-])O.[Zn+2].c1ccncc1
inactive: [8] 108 % of control

O=C(CCCN1CCC2(CC1)CNC(=O)N2c1ccccc1)c1ccc(F)cc1
inactive: endpoint: mean survival time, dose: 100.0 mg/kg/injection, schedule: Q01DX001 (ip), vehicle: saline with Tween-80 101 % of control | endpoint: mean survival time, dose: 200.0 mg/kg/injection, schedule: Q01DX001 (ip), vehicle: saline with Tween-80 98 % of control | endpoint: mean survival time, dose: 400.0 mg/kg/injection, schedule: Q01DX001 (ip), vehicle: saline with Tween-80 91 % of control

O=C1C2C3C=CC(C3)C2C(=O)N1O (centres undefined)
inactive: endpoint: mean survival time, dose: 50.0 mg/kg/injection, schedule: Q01DX001 (ip), vehicle: carboxymethylcellulose (CMC) 106 % of control | endpoint: mean survival time, dose: 100.0 mg/kg/injection, schedule: Q01DX001 (ip), vehicle: carboxymethylcellulose (CMC) 100 % of control | endpoint: mean survival time, dose: 200.0 mg/kg/injection, schedule: Q01DX001 (ip), vehicle: carboxymethylcellulose (CMC) 112 % of control | endpoint: mean survival time, dose: 400.0 mg/kg/injection, schedule: Q01DX001 (ip), vehicle: carboxymethylcellulose (CMC) 96 % of control

C[C@H]1C[C@@H]2[C@H]([C@@H](O)C[C@@]3(C)[C@H]2CC[C@]3(O)C(=O)CF)[C@@]2(C)C=CC(=O)C=C12
inactive: endpoint: mean survival time, dose: 100.0 mg/kg/injection, schedule: Q01DX001 (sc), vehicle: steriod suspending solution 98 % of control | endpoint: mean survival time, dose: 200.0 mg/kg/injection, schedule: Q01DX001 (sc), vehicle: steriod suspending solution 101 % of control | endpoint: mean survival time, dose: 400.0 mg/kg/injection, schedule: Q01DX001 (sc), vehicle: steriod suspending solution 108 % of control

O=C(O)c1ccccc1SSc1ccccc1C(=O)O
inactive: [1] 89 % of control | [2] 101 % of control | [9] 102 % of control | [3] 95 % of control | [10] 104 % of control

CCCCCCCCCCCCCCCC(=O)N(CCCN)CCCN(CCCN)C(=O)CCCCCCCCCCCCCCC
inactive: [11] 97 % of control | [1] 89 % of control

O=S1(=O)CCCCC1
inactive: endpoint: mean survival time, dose: 37.5 mg/kg/injection, schedule: Q01DX009 (ip), vehicle: saline 98 % of control | [8] 104 % of control | endpoint: mean survival time, dose: 75.0 mg/kg/injection, schedule: Q01DX009 (ip), vehicle: saline 98 % of control | endpoint: mean survival time, dose: 75.0 mg/kg/injection, schedule: Q04DX003 (ip), vehicle: saline 93 % of control | endpoint: mean survival time, dose: 150.0 mg/kg/injection, schedule: Q01DX001 (ip), vehicle: saline 96 % of control | endpoint: mean survival time, dose: 150.0 mg/kg/injection, schedule: Q01DX009 (ip), vehicle: saline 98 % of control | endpoint: mean survival time, dose: 150.0 mg/kg/injection, schedule: Q04DX003 (ip), vehicle: saline 96 % of control | endpoint: mean survival time, dose: 300.0 mg/kg/injection, schedule: Q01DX001 (ip), vehicle: saline 95 % of control | endpoint: mean survival time, dose: 300.0 mg/kg/injection, schedule: Q04DX003 (ip), vehicle: saline 100 % of control

c1ccc(COC2CN3CCC2CC3)cc1 (centres undefined)
inactive: [11] 100 % of control | [1] 100 % of control

CC(=O)OCC1OC(Oc2c([N+](=O)[O-])cc([N+](=O)[O-])c3ccccc23)C(OC(C)=O)C(OC(C)=O)C1OC(C)=O (centres undefined)
inactive: [12] 96 % of control | [13] 93 % of control | endpoint: mean survival time, dose: 400.0 mg/kg/injection, schedule: Q04DX002 (ip), vehicle: saline with Tween-80 104 % of control

c1ccc2c(c1)CC1CCCCN1C2 (centres undefined)
inactive: endpoint: mean survival time, dose: 12.5 mg/kg/injection, schedule: Q01DX009 (ip), vehicle: Klucel (hydroxypropylcellulose) (HPC) 94 % of control | endpoint: mean survival time, dose: 12.5 mg/kg/injection, schedule: Q04DX003 (ip), vehicle: saline 95 % of control | endpoint: mean survival time, dose: 25.0 mg/kg/injection, schedule: Q01DX009 (ip), vehicle: Klucel (hydroxypropylcellulose) (HPC) 100 % of control | endpoint: mean survival time, dose: 25.0 mg/kg/injection, schedule: Q04DX003 (ip), vehicle: saline 93 % of control | endpoint: mean survival time, dose: 50.0 mg/kg/injection, schedule: Q01DX009 (ip), vehicle: Klucel (hydroxypropylcellulose) (HPC) 97 % of control | endpoint: mean survival time, dose: 50.0 mg/kg/injection, schedule: Q04DX003 (ip), vehicle: saline 95 % of control

CCCC1C(=O)N2C(N(C)C)=Nc3ccc(C)cc3N2C1=O (centres undefined)
inactive: [9] 94 % of control | [10] 96 % of control | [14] 96 % of control

O=NN1CC2CCC1CC2
inactive: endpoint: mean survival time, dose: 5.0 mg/kg/injection, schedule: Q01DX001 (ip), vehicle: saline with Tween-80 98 % of control | endpoint: mean survival time, dose: 10.0 mg/kg/injection, schedule: Q01DX001 (ip), vehicle: saline with Tween-80 101 % of control

CCN(CC)CCSC(=O)c1ccccc1
inactive: endpoint: mean survival time, dose: 50.0 mg/kg/injection, schedule: Q01DX009 (ip), vehicle: saline 103 % of control | [4] 103 % of control

O=C(O)c1ccc(C(=O)O)c2c(C(=O)O)ccc(C(=O)O)c12
inactive: [2] 95 % of control | [5] 97 % of control | [3] 90 % of control | [6] 96 % of control | [7] 93 % of control

CN(C)C(SCc1ccccc1)=[N+](C)C
inactive: [12] 105 % of control | [13] 94 % of control

CN(C)S(=O)(=O)C1(c2ccccc2)CCCC1
inactive: [9] 102 % of control | [10] 105 % of control | [14] 100 % of control

O=C(O)CC1C(=O)OC2C3COC(=O)c4cc(O)c(O)c(O)c4-c4c(cc(O)c(O)c4O)C(=O)OC2C(OC(=O)c2cc(O)c(O)c4c2C1C(O)C(=O)O4)C(OC(=O)c1cc(O)c(O)c(O)c1)O3 (centres undefined)
inactive: endpoint: median survival time, dose: 3.12 mg/kg/injection, schedule: Q01DX009 (ip), vehicle: saline 102 % of control | endpoint: median survival time, dose: 6.25 mg/kg/injection, schedule: Q01DX009 (ip), vehicle: saline 98 % of control | endpoint: median survival time, dose: 12.5 mg/kg/injection, schedule: Q01DX009 (ip), vehicle: saline 101 % of control | endpoint: median survival time, dose: 25.0 mg/kg/injection, schedule: Q01DX009 (ip), vehicle: saline 98 % of control | endpoint: median survival time, dose: 50.0 mg/kg/injection, schedule: Q01DX009 (ip), vehicle: saline 100 % of control
